Like-named read-outs stand apart in the source and are kept apart here. Where a SMILES comes first, the peptide text is derived from it. [ ]: non-standard residue; d: D form. Gly(Nα-oleyl) = CCCCCCCC/C=C\CCCCCCCCNCC(=O)O; N(2-ethylhexyl)Gly = CCCCC(CC)CNCC(=O)O; Gly(N-dodecyl) = CCCCCCCCCCCCNCC(=O)O; N(CH(CH2OH)2)Gly = O=C(O)CNC(CO)CO; N(octyl)Gly = CCCCCCCCNCC(=O)O; NDecylGly = CCCCCCCCCCNCC(=O)O
Legend:
[1] = Apparent particle pKa, TNS fluorescence assay; type: physicochemical; conditions: Table 5; apparent particle pKa of delivery vehicle
Experimental: The apparent particle pKa was assessed by a TNS fluorescence assay. Briefly, particles were diluted to 130 uM total lipid in TNS buffer ranging in pH 3-11 for 10 minutes with […] of TNS probe. The fluorescence was measured at room temperature in a plate reader ex 320/em 445. Fluorescence intensity was normalized to the minimal and maximal values and the pKa was determined by a 3 parameter fit to determine the half maximum of the curve.

[2] = RBC hemolysis as metric for fusogenicity; type: cell-based; conditions: sheep red blood cells (RBCs), 5% v/v, Table 5, delivery vehicle, 37° C. 45 min
Experimental: RBC hemolysis was used as a metric for fusogenicity of LNPs at low pH. […] Particles were diluted to […] total lipid in well with 5% RBC solution and incubated at 37° C. for 45 min. Supernatant was collected and absorbance read on a microplate reader at 425 nm. Fusion was normalized to a fully lysed sample with 2% Triton™ and a buffer-only control. % hemolysis=100*[(ABS T-background)−(ABS sample-background)/(ABS T-background)].

[3] = Zeta potential of delivery vehicles; type: physicochemical; conditions: Table 5; delivery vehicle, pH 7 buffer; in mV (unit assumed)
Experimental: (§1) In one particular instance, the size and polydispersity (PDI) of delivery vehicles was measured by dynamic light scattering in PBS using a DynaPro® plate reader III. The zeta potential of delivery vehicles was determined using Nano-ZS™ particle analyzer. Zeta sample was diluted to 30 uM total lipid in a weakly buffered solution of 10 mM HEPES, 10 mM MES, 10 mM ammonium acetate pH 7. Measurements were collected in duplicate for over 30 run with the voltage manually set to […]

[4] = Particle size and polydispersity (PDI) of delivery vehicles by dynamic light scattering; type: physicochemical; conditions: Table 5; delivery vehicle comprising the peptoid, Formulation D22, fLuc mRNA
Experimental: The resulting delivery vehicle complexes were evaluated by dynamic light scattering (DLS) to determine the volume average particle size/diameter (nm) and the size polydispersity index (PDI) within the delivery vehicle complex.
Particle size. Particle sizes and size distributions were measured using a Wyatt DynaPro® Plate Reader III. In general, formulated samples were diluted to 2 ng/μL in 100 µL PBS. Data is reported as the hydrodynamic diameter (in nm) of the cumulant fit of the correlation function, and the polydispersity of that measurement.
as §1

[5] = Percent encapsulated mRNA, RiboGreen assay; type: physicochemical; conditions: Table 5; delivery vehicle comprising the peptoid, Formulation D22, fLuc mRNA
Experimental: Percent encapsulation. The percentage of mRNA encapsulated within the delivery vehicle complexes containing Fluc mRNA was determined using a modified RiboGreen® assay. In general, formulated mRNA samples were diluted to 500 ng/ml in Tris-EDTA buffer with or without Triton-X™. RiboGreen® (Invitrogen) was added at a 200-fold dilution, and the plate was incubated for 5 minutes. Fluorescence was measured at Ex. […]/Em. 520 nm and encapsulated mRNA was calculated by taking the ratio of fluorescence for non-lysed particles versus lysed particles.
The mRNA concentration and the percentage of encapsulated mRNA were determined using a fluorescence-based Quant-iT™ RiboGreen® RNA Reagent Kit using a literature procedure. To determine the mRNA concentration, delivery vehicles were incubated with 2% Triton™ X-100 for 10 min to release entrapped mRNA, followed by addition of RiboGreen® RNA reagent. The fluorescence intensity of mRNA-RiboGreen® reagent complex (excitation at 485 nm and emission at 530 nm) was detected using a microplate reader. The ratio of fluorescence without and with Triton™ X-100 were used to calculate the percentage of encapsulated mRNA.

[6] = pH 5, read-out: Hemolysis at pH 5
[7] = pH 7, read-out: Hemolysis at pH 7

Row | SMILES | pKa (TNS) [1] | hemolysis at 45 min, 150 mM total lipid [2, 6] | hemolysis at 45 min, 150 mM total lipid [2, 7] | Zeta Potential [3] | PDI [4] | Particle Size (nm) [4] | % Encapsulation [5]
1 | CCCCCCCCCCCCN(CC(N)=O)C(=O)CN(CCCCCCCCCCCC)C(=O)CN(CCCCCCCCCCCC)C(=O)CN(CCCCCCCCCCCC)C(=O)CN(CCCCCCCCCCCC)C(=O)CN(CCCCCCCCCCCC)C(=O)CNC(CO)CO [Compound 16] (H-[N(CH(CH2OH)2)Gly][Gly(N-dodecyl)][Gly(N-dodecyl)][Gly(N-dodecyl)][Gly(N-dodecyl)][Gly(N-dodecyl)][Gly(N-dodecyl)]-NH2) | 5.554 | 4.1% | 2.2% | −3.58 | 0.24 | 93.1 nm | 30.6%
2 | CCCCCCCCCCCCN(CC(=O)N(CCCCCC)CC(N)=O)C(=O)CN(CCCCCCCCCCCC)C(=O)CN(CC(CC)CCCC)C(=O)CN(CCCCCC)C(=O)CN(CCCCCCCCCCCC)C(=O)CN(CCCCCCCCCCCC)C(=O)CN(CC(CC)CCCC)C(=O)CNC(CO)CO (centres unmarked) [Compound 17] | 5.656 | 2.1% | 0.3% | −17.8 | 0.11 | 96.7 nm | 50.3%
3 | CCCCCCCC/C=C\CCCCCCCCN(CC(N)=O)C(=O)CN(CCCCCCCC)C(=O)CN(CCCCCCCC/C=C\CCCCCCCC)C(=O)CNC(CO)CO [Compound 20] (H-[N(CH(CH2OH)2)Gly][Gly(Nα-oleyl)][N(octyl)Gly][Gly(Nα-oleyl)]-NH2) | 5.773 | 16.7% | 33.3% | 3.41 | 0.18 | 65.4 nm | 70.1%
4 | CCCCCCCCCCCCN(CC(N)=O)C(=O)CN(CCCCCCCCCCCC)C(=O)CN(CCCCCCCCCCCC)C(=O)CN(CCCCCCCCCCCC)C(=O)CNC(CO)CO [Compound 21] | 5.406 | 35.8% | 59.5% | 2.7 | 0.262 | 66.4 nm | 81.2%
5 | CCCCCCCCCCCCN(CC(=O)N(CCCCCCCCCC)CC(=O)N(CCCCCCCCCCCC)CC(=O)N(CCCCCCCCCC)CC(N)=O)C(=O)CNC(CO)CO [Compound 22] | 5.888 | 58.9% | 81.5% | 4.24 | 0.179 | 51.5 nm | 83.3%
6 | CCCCC(CC)CN(CC(N)=O)C(=O)CN(CC(CC)CCCC)C(=O)CN(CC(CC)CCCC)C(=O)CN(CC(CC)CCCC)C(=O)CNC(CO)CO (centres unmarked) [Compound 24] | 6.43 | 100% | 99.9% | −1.59 | 0.12 | 66.9 nm | 97.6%
7 | CCCCCCCCCCCCN(CC(=O)N(CCCCCCCCCC)CC(N)=O)C(=O)CN(CCCCCCCCCC)C(=O)CN(CCCCCCCCCC)C(=O)CN(CCCCCCCCCCCC)C(=O)CN(CCCCCCCCCC)C(=O)CNC(CO)CO [Compound 27] (H-[N(CH(CH2OH)2)Gly][NDecylGly][Gly(N-dodecyl)][NDecylGly][NDecylGly][Gly(N-dodecyl)][NDecylGly]-NH2) | 5.48 | 12.4% | 9.1% | 1.84 | 0.214 | 107.6 nm | 87.9%
8 | CCCCCCCCCCN(CC(=O)N(CC(N)=O)CC(CC)CCCC)C(=O)CN(CCCCCCCC)C(=O)CN(CC(CC)CCCC)C(=O)CN(CCCCCCCCCC)C(=O)CN(CCCCCCCC)C(=O)CNC(CO)CO (centres unmarked) [Compound 28] (H-[N(CH(CH2OH)2)Gly][N(octyl)Gly][NDecylGly][N(2-ethylhexyl)Gly][N(octyl)Gly][NDecylGly][N(2-ethylhexyl)Gly]-NH2) | 5.844 | 15.1% | 5.6% | −5.98 | 0.089 | 86.6 nm | 82.2%
9 | CCCCCCCCCCN(CC(=O)N(CCCCCCCCCC)CC(=O)N(CC(=O)N(CCCCCCCCCC)CC(=O)N(CCCCCCCCCC)CC(=O)N(CC(N)=O)CC(CC)CCCC)CC(CC)CCCC)C(=O)CNC(CO)CO (centres unmarked) [Compound 29] (H-[N(CH(CH2OH)2)Gly][NDecylGly][NDecylGly][N(2-ethylhexyl)Gly][NDecylGly][NDecylGly][N(2-ethylhexyl)Gly]-NH2) | 6.044 | 4.8% | 1.3% | −7.04 | 0.094 | 92.7 nm | 81.9%
10 | CCCCCCCCCCCCN(CC(=O)N(CCCCCCCCCCCC)CC(=O)N(CC(=O)N(CCCCCCCCCCCC)CC(=O)N(CCCCCCCCCCCC)CC(=O)N(CC(N)=O)CC(CC)CCCC)CC(CC)CCCC)C(=O)CNC(CO)CO (centres unmarked) [Compound 30] (H-[N(CH(CH2OH)2)Gly][Gly(N-dodecyl)][Gly(N-dodecyl)][N(2-ethylhexyl)Gly][Gly(N-dodecyl)][Gly(N-dodecyl)][N(2-ethylhexyl)Gly]-NH2) | 6.084 | 17.3% | 2.1% | −1.41 | 0.097 | 82.6 nm | 87.7%
11 | CCCCCCCCCCCCN(CC(=O)N(CCCCCCCCCCCC)CC(=O)N(CCCCCCCC)CC(=O)N(CCCCCCCCCCCC)CC(=O)N(CCCCCCCCCCCC)CC(=O)N(CCCCCCCC)CC(N)=O)C(=O)CNC(CO)CO [Compound 33] (H-[N(CH(CH2OH)2)Gly][Gly(N-dodecyl)][Gly(N-dodecyl)][N(octyl)Gly][Gly(N-dodecyl)][Gly(N-dodecyl)][N(octyl)Gly]-NH2) | 5.935 | 0.9% | 0.4% | −2.12 | 1 | 165.8 nm | −1.8%
12 | CCCCCCCCCCN(CC(N)=O)C(=O)CN(CCCCCCCCCC)C(=O)CN(CCCCCCCCCC)C(=O)CN(CCCCCCCCCC)C(=O)CNC(CO)CO [Compound 37] | 6.418 | 7.8% | 23.9% | −0.676 | Multimodal | 181.4 nm | 56.4%
13 | CCCCCCCCCCCCN(CC(N)=O)C(=O)CN(CC(CC)CCCC)C(=O)CN(CCCCCCCCCCCC)C(=O)CN(CCCCCCCCCCCC)C(=O)CN(CC(CC)CCCC)C(=O)CN(CCCCCCCCCCCC)C(=O)CNC(CO)CO (centres unmarked) [Compound 40] (H-[N(CH(CH2OH)2)Gly][Gly(N-dodecyl)][N(2-ethylhexyl)Gly][Gly(N-dodecyl)][Gly(N-dodecyl)][N(2-ethylhexyl)Gly][Gly(N-dodecyl)]-NH2) | 4.883 | 0.5% | -0.1% | −7.48 | Multimodal | 270.5 nm | 55.9%
14 | CCCCCCCC/C=C\CCCCCCCCN(CC(=O)N(CCCCCCCC)CC(=O)N(CCCCCCCC/C=C\CCCCCCCC)CC(=O)N(CCCCCCCC)CC(N)=O)C(=O)CNC(CO)CO [Compound 44] | 6.936 | 51.6% | 95.8% | 2.39 | 0.194 | 98.1 nm | 76.4%

— US20260083769A1, “2-Aminopropane-1,3-Diol-Capped Cationic Peptoids for Nucleic Acid Delivery” (NUTCRACKER THERAPEUTICS, INC., priority 2022, published 2026)
